Measured values published in patent EP0136464A2, “Therapeutic compositions for oral use containing stable S-Adenosy1-L-Methionine salts” (BIORESEARCH S.p.A., priority 1983, dated 1985).
Like-named read-outs stand apart in the source and are kept apart here.

Experiments:
[1] = test system: Reaction to heat, tail flick test in the rat; assay: Reaction to heat, tail flick test in the rat (analgesic activity); type: in vivo, male Sprague-Dawley rats
Protocol: (§1) In the experiments carried out on animals which received the SAMe orally, the drug was dissolved in physiological solution and administered by gastric probe in a volume of 0.5 ml/100 g of body weight. An equal volume of physiological solution was administered to the controls.
(§2) In the experiments in which SAMe was administered intraduodenally, the animals anesthetised with ether were subjected to laparotomy to allow the insertion into the duodenum of gelatin capsules (size 4) containing the product.
(§3) After inserting the capsule, the duodenum was sutured carefully so as not to traumatise the tissue and was then returned to its seat, the muscular and cutaneous layers then being re-composed and sutured.
(§4) The control animals received an empty gelatin capsule by the same procedure.
1) Reaction to heat, tail flick test in the rat.
The analgesic activity of SAMe was evaluated in male Sprague-Dawley rats of about 190 g weight by the method of D'Amour and Smith (J. Pharmacol. Exp. Theor. 71, 74 (1941)).
The SAMe was administered either orally or in gelatin capsules into the duodenum in doses of 50 and 100 mg/kg.
Morphine was used as the comparison drug and was administered under the cutis at a dose of 5 mg/kg.
The analgesic activity was determined 30, 60 and 120 minutes after administration of the drugs.
The results represent the mean + S.E. for the number of animals indicated in parentheses. The morphine was administered under the cutis to rats which received one empty capsule into the duodenum.

[2] = SAMe concentration in portal and aortic plasma after intestinal or oral (gastric probe) administration; type: in vivo, male Sprague-Dawley rats; conditions: rat, SAMe-tri-p. toluenesulphonate, reduced by control values; for concentration at 1 h: 60 min; for concentration at 1.5 h: 90 min; for concentration at 2 h: 120 min; for concentration at 3 h: 180 min; for concentration at 4 h: 240 min
Protocol: The values given relate to tests carried out with SAMe-tri-p. toluenesulphonate, but substantially identical results were obtained with other known SAMe salts.
The drug concentrations in the portal or aortic plasma were evaluated as the absorption parameters.
The experiment was carried out on 72 male Sprague-Dawley rats of weight 210-260 g, which had fasted since the previous evening.
The animals, anesthetised with ether, were operated on in order to insert a capsule into the proximal jejunum. The incision in the intestinal wall was closed by ligature, and the animals were sutured.
The treatment scheme was as follows: • Intestinal administration: A capsule containing a weighed SAMe quantity corresponding to a dose of 32 mg/kg of body weight was inserted into the intestine, and 5 ml of H20/kg were administered by means of a gastric probe. • Oral administration: An empty capsule was inserted into the intestine, and 32 mg of SAMe/kg in aqueous solution (5 ml/kg) were • administered by means of a gastric probe. Controls: An empty capsule was inserted into the intestine, and 5 ml of H20/kg of body weight were administered by means of a gastric probe.
After 10, 20, 40, 60, 90, 120, 180 and 240 minutes from administration, 3 animals were sacrificed at a time in order to withdraw portal and aortic blood.
The SAMe concentrations in the plasma were determined by the Baldessarini and Kopin method (J. Neuroch. 13: 769, 1966).
The values represent the mean + standard error of 3 observations, reduced by the values found for the controls.

[3] = test system: Edema induced by carrageen in the rat; assay: Edema induced by carrageen in the rat (anti-inflammatory activity); type: in vivo, Male Sprague-Dawley rats
Protocol: as §1, §2, §3, §4
The antiphlogistic and analgesic activity of SAMe were evaluated by the following tests: • A. Anti-inflammatory activity • 1) Edema induced by carrageen in the rat.
Male Sprague-Dawley rats of about 170 g weight were used, having fasted since the evening preceding the experiment. Edema was induced by carrageen using the method described by Winter et al. (Proc. Soc. Exp. Biol. Med. 111, 544 (1962)).
The SAMe was administered orally one hour before the carrageen at doses of 25 and 50 mg/kg, and intraduodenally at doses of 25 and 50 mg/kg 80 minutes before the phlogogenic agent. […]

[4] = aortic plasma, po, 32 mg/kg aqueous solution by gastric probe, read-out: SAMe concentration in the plasma, Oral treatment, Aortic
[5] = aortic plasma, 32 mg/kg capsule into proximal jejunum, read-out: SAMe concentration in the plasma, Intestinal treatment, Aortic
[6] = portal plasma, po, 32 mg/kg aqueous solution by gastric probe, read-out: SAMe concentration in the plasma, Oral treatment, Portal
[7] = portal plasma, 32 mg/kg capsule into proximal jejunum, read-out: SAMe concentration in the plasma, Intestinal treatment, Portal

In the case of `CN1CC[C@]23c4c5ccc(O)c4O[C@H]2[C@@H](O)C=C[C@H]3[C@H]1C5` [Morphine, reference compound], the “analgesic activity with respect to the controls” value ([1]; in vivo, 5 mg/kg) is reported as “powerful analgesic activity (P<0.01)”.

For `C[S+](CC[C@H](N)C(=O)[O-])C[C@H]1O[C@@H](n2cnc3c(N)ncnc32)[C@H](O)[C@@H]1O` (stereo partly drawn) [SAMe, Sulpho-adenosyl-L-methionine], the concentration at 10 min [2, 4] was 1100 ng/mL, the concentration at 20 min [2, 4] was 780 ng/mL and the concentration at 40 min [2, 4] was 720 ng/mL. It also gave a concentration at 1 h [2, 4] of 700 ng/mL, a concentration at 1.5 h [2, 4] of 680 ng/mL and a concentration at 2 h [2, 4] of 680 ng/mL. The concentration at 3 h [2, 4] was 660 ng/mL, the concentration at 4 h [2, 4] was 640 ng/mL and the concentration at 10 min [2, 5] was 13100 ng/mL. The concentration at 20 min [2, 5] was 8630 ng/mL, the concentration at 40 min [2, 5] was 4390 ng/mL and the concentration at 1 h [2, 5] was 1870 ng/mL. It also gave a concentration at 1.5 h [2, 5] of 1280 ng/mL, a concentration at 2 h [2, 5] of 880 ng/mL and a concentration at 3 h [2, 5] of 690 ng/mL. The concentration at 4 h [2, 5] was 530 ng/mL, the concentration at 10 min [2, 6] was 2930 ng/mL and the concentration at 20 min [2, 6] was 870 ng/mL. It also gave a concentration at 40 min [2, 6] of 840 ng/mL, a concentration at 1 h [2, 6] of 610 ng/mL and a concentration at 1.5 h [2, 6] of 540 ng/mL. For the same compound, the concentration at 2 h [2, 6] was 520 ng/mL, the concentration at 3 h [2, 6] was 520 ng/mL and the concentration at 4 h [2, 6] was 460 ng/mL. The concentration at 10 min [2, 7] was 25500 ng/mL, the concentration at 20 min [2, 7] was 9390 ng/mL and the concentration at 40 min [2, 7] was 2990 ng/mL. The concentration at 1 h [2, 7] was 2440 ng/mL, the concentration at 1.5 h [2, 7] was 1540 ng/mL and the concentration at 2 h [2, 7] was 770 ng/mL. The concentration at 3 h [2, 7] was 770 ng/mL, the concentration at 4 h [2, 7] was 640 ng/mL and the edema inhibition ([3]; intraduodenal administration, 50 mg/kg, 80 minutes before the phlogogenic agent) was “statistically significant edema inhibition”. The edema development ([3]; oral administration, 25 and 50 mg/kg, one hour before the carrageen, versus controls) was “not able to significantly modify the edema development”, the “Reaction time in minutes at various times after treatment” value (“Reaction time in minutes” for short) ([1]; administered into the duodenum, 50 mg/kg, 30 min) was 8.5 min and the “Reaction time in minutes” value ([1]; administered into the duodenum, 50 mg/kg, 60 min) was 8.2 min. The “Reaction time in minutes” value ([1]; administered into the duodenum, 50 mg/kg, 120 min) was 8.3 min, the “Reaction time in minutes” value ([1]; administered into the duodenum, 50 mg/kg, T0) was 4.8 min and the “Reaction time in minutes” value ([1]; administered into the duodenum, 100 mg/kg, 30 min) was 10.2 min. The “Reaction time in minutes” value ([1]; administered into the duodenum, 100 mg/kg, 60 min) was 9.6 min, the “Reaction time in minutes” value ([1]; administered into the duodenum, 100 mg/kg, 120 min) was 8.5 min and the “Reaction time in minutes” value ([1]; administered into the duodenum, 100 mg/kg, T0) was 5.0 min. For the same compound, the “Reaction time in minutes” value ([1]; administered orally, 50 mg/kg, 30 min) was 5.04 min, the “Reaction time in minutes” value ([1]; administered orally, 50 mg/kg, 60 min) was 4.09 min and the “Reaction time in minutes” value ([1]; administered orally, 50 mg/kg, 120 min) was 4.20 min. The “Reaction time in minutes” value ([1]; administered orally, 50 mg/kg, T0) was 4.60 min, the “Reaction time in minutes” value ([1]; administered orally, 100 mg/kg, 30 min) was 4.46 min and the “Reaction time in minutes” value ([1]; administered orally, 100 mg/kg, 60 min) was 4.73 min. For the same compound, the “Reaction time in minutes” value ([1]; administered orally, 100 mg/kg, 120 min) was 4.25 min, the “Reaction time in minutes” value ([1]; administered orally, 100 mg/kg, T0) was 4.41 min and the “reaction times, difference between treated animals and the controls” value ([1]; intraduodenal administration, 100 mg/kg, 30 minutes after treatment) was “highly significant difference (P<0.01)”. For the same compound, the “reaction time towards heat with respect to the controls” value ([1]; oral administration, 50 and 100 mg/kg) was “not able to modify the reaction time towards heat”.
